Laboratory results reported in patent US12691118B2, “Allosteric agonists and positive allosteric modulators of Glucagon-like peptide 1 receptor” (University of the Sciences, priority 2019, dated 2026).
Entries after “also recorded” stand apart in the source; their conditions may differ. Each block holds one compound with its values, some of them ahead of it. Ends that are not written are not given here.

What was measured:
[1] = molecular target: T1, Vasoactive Intestinal Polypeptide Receptor 1 (VIPR1) (Homo sapiens, UniProt P32241); experiment: Non-specific effect on VIPR1, luciferase assay in HEK293 cells overexpressing VIPR1; assay type: cell-based; details: Ib 23.5 μM; VIPR peptide agonist 0.014 nM-145 nM
T1 construct: host or cells: HEK293 cells stably expressing CRE/CREB luciferase reporter
T1 sequence (P32241 31-457): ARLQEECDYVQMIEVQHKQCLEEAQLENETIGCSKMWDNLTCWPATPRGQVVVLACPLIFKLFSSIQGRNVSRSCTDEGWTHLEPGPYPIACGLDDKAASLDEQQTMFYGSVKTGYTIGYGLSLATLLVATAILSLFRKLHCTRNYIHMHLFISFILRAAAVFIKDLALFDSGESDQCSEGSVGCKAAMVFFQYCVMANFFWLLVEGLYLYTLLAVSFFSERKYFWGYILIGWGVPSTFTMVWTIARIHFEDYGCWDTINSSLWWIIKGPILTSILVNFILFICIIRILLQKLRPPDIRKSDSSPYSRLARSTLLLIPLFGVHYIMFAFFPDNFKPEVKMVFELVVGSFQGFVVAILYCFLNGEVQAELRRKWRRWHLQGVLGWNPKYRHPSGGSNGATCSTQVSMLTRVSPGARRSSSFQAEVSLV
Description: (§1) Compounds dissolved in 100% DMSO were diluted to indicated concentration in RPMI 1640 (0.5% DMSO included for all cell culture). After 4 hours of treatment, cells were harvested by cold luciferase cell culture lysis buffer and kept on shaker for 10 min at 4° C. Luciferase activity was measured using luciferin substrate and luminescence was read by Wallac 1420 multiplate reader. Luciferase activity of HEK293 reporting cells cultured using 0.5% DMSO and full RPMI medium was used as a vehicle control. Protein concentration of each well was determined by Bradford assay.
HEK293 cells stably expressing CRE/CREB Reporter (luciferase) were cultured in RPMI 1640 supplemented with 8% (v/v) fetal bovine serum, 2% (v/v) penicillin/streptomycin, and 100 μg/ml of Hygromycin B. Cells were maintained at 37° C. with 5% CO2. Cells were seeded into 6-well cell culture plates one day before transfection. After overnight incubation, cells were transiently transfected with 3.4 μg of VIPR1, using Lipofectamine 2000. After 4 hours of transfection, medium was replaced by RPMI supplemented with 5% (v/v) fetal bovine serum. After 24 hours of incubation, cells were trypsinized and seeded into 96 well cell culture plates (5.5×10^4 cells per well) and maintained at 37° C. in 5% CO2 for 24 hours. After 24 hours of incubation, the cells were starved with RPMI with 0.5% sera. […]

[2] = molecular target: T2, human GLP-1R (Homo sapiens, UniProt P43220); experiment: CRE luciferase reporter assay in HEK293 cells transiently expressing human GLP-1R; assay type: cell-based; details: for GLP-1R activity stimulated by GLP-1 in combination with compound vs GLP-1 alone: GLP-1 0.014 nM-145 nM
T2 construct: Flag (N); host or cells: HEK293 cells stably expressing CRE/CREB luciferase reporter (BPS Bioscience #60515)
T2 sequence (P43220 24-463): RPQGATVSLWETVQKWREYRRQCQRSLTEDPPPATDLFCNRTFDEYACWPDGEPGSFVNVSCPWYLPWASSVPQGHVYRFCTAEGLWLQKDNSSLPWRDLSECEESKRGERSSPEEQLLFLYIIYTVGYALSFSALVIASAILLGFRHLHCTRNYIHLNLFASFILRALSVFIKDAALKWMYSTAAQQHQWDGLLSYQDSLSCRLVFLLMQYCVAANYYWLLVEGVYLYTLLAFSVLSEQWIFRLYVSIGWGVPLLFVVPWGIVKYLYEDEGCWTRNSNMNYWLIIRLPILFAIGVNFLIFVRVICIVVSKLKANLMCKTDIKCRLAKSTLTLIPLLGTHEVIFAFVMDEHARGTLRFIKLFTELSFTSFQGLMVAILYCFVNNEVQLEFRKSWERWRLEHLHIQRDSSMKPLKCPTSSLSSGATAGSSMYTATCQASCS
Description: HEK293 cells stably expressing CRE/CREB Reporter (luciferase) were cultured in RPMI medium supplemented with 8% (v/v) fetal bovine serum, 2% (v/v) penicillin/streptomycin, and 100 μg/ml of Hygromycin B. Cells were maintained in an incubator at 37° C. with 5% CO2. Cells were seeded into 6-well cell culture plates one day before transfection. After overnight incubation, one well of cell was transiently transfected with 3.4 μg of human GLP-1R or empty vector, respectively, using lipofectamine 2000. After 4 hours of transfection, transfection medium was replaced by RPMI medium supplemented with 5% (v/v) fetal bovine serum and 2% (v/v) penicillin/streptomycin. After 24 hours of incubation, cells were trypsinized and seeded into 96 well cell culture plates (5.5× 10^4 cells per well) and maintained at 37° C. in 5% CO2 incubator for 24 hours. The cells were starved using RPMI with 0.5% sera. After 24 hours of starvation, the transfected cells were treated with compounds as indicated.
as §1
The concentration-dependent dose response curve was generated using Graph Pad Prism 6.0 for Mac (GraphPad Software Inc., San Diego, CA). The curves were fitted based on sigmoidal dose response with the bottom parameter being kept 0. The EC50 value was calculated from Prism. The statistical difference between different groups was analyzed by 2-way ANOVA module in Prism.

[3] = test system: INS-1 832/13 cells; experiment: Glucose stimulated insulin production in INS-1 832/13 cells; assay type: cell-based, rat; details: 16.7 mM glucose
Description: INS-1 832/13 cells were cultured in RPMI 1640 supplemented with 2 mM L-glutamine, 1 mM sodium pyruvate, 10% FBS, 10 mM HEPES, 100 units/ml penicillin, 100 μg/ml streptomycin, and 50 μM β-mercaptoethanol. Cells were maintained in an incubator at 37° C. with 5% CO2. To determine the effect of GLP-1R agonist Ia and PAM Ib on insulin production, INS-1 cells were seeded onto 24 well plates. After 48 hours of incubation, cells were washed twice with 200 μl of Krebs-Ringer Bicarbonate (KRB) buffer and starved for 2 hours in fresh KRB supplemented with 0.1% serum. […] After 20 minutes, the supernatant was collected, centrifuged at 1000 rpm for 5 min at 4° C., and aliquoted and stored at −20° C. These samples were used to determine insulin concentration using insulin detection kit ELISA following the manual.

[4] = Compound stability (statement); assay type: physicochemical

- GLP-1R activity stimulated by GLP-1 in combination with compound vs GLP-1 alone ([2]; Ib 23.5 μM): significantly increased
Compound: CCOC(=O)c1c(N)sc2c1CCCC2C (centres unmarked) [Compound Ib, ethyl 2-amino-7-methyl-4,5,6,7-tetrahydrobenzo[b]thiophene-3-carboxylate]
- non-specific activity on VIPR1 (VIPR1 activity with VIPR agonist in combination with Ib vs agonist alone) [1]: did not induce non-specific activity; also recorded: no potential non-specific activity on VIPR1
- insulin secretion, Ib in combination with GLP-1 vs GLP-1 alone ([3]; Ib 11.75 μM + GLP-1 0.18 μM): more than 2.5 fold
- amount of insulin produced by Ib compared with vehicle control ([3]; Ib 11.75 μM alone): no significant difference

- GLP-1R activity stimulated by GLP-1 in combination with compound vs GLP-1 alone ([2]; Ic 71 μM): significantly increased
- potency as PAM (statement) ([2]; compared with Ib): less potent
- stability (statement) [4]: unstable
Compound: CC1CCCc2c1sc1nc(S)n(N)c(=O)c21 (centres unmarked) [Compound Ic, 3-amino-2-mercapto-8-methyl-5,6,7,8-tetrahydrobenzo[4,5]thieno[2,3-d]pyrimidin-4(3H)-one]

Compound: GLP-1: GLP-1R peptide agonist (Sigma #9416), endogenous ligand of GLP-1R (HAEGTFTSDVSSYLEGQAAKEFIAWLVKGR; ends and bridges not checked; UniProt P01275 98-127, looked up) [reference compound]
- insulin production compared to vehicle control ([3]; GLP-1 0.18 μM, both time points): more than two-fold
